We go through 4 molecules from patent US12692269B2, “Therapeutic compounds” (Genentech, Inc., priority 2019, dated 2026).

Holding throughout (format): binding
The target in assay [1] is TEAD2 TAZ (amino acids 13-57) (Homo sapiens, UniProt Q15562). The assay is described as follows: TEAD2-TAZ HTRF (TR-FRET) protein-protein interaction assay. Conditions: for TEAD2 TAZ HTRF combined: Max % Inhibition: TEAD2, TAZ peptide; for EC50: TEAD2-TAZ HTRF, TR-FRET 665 nm/615 nm, read-out: TEAD2 TAZ HTRF combined: EC50. An outline of the steps:
(§1)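 His-tagged TEAD YAP-binding domain (aa 217-447) pre-bound to Eu anti-His tracer, incubated with compound 30 min, then biotinylated YAP (aa 50-100) or TAZ (aa 13-57) peptide with streptavidin-XL665 added for 60 min at room temperature. TR-FRET read at 665/615 nm; IC50 or EC50 from four-parameter fit.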
(In general: In TR-FRET formats the signal depends on donor and acceptor labels being close together.)

Assay [2] addresses TEAD4 TAZ (amino acids 13-57) (Homo sapiens, UniProt Q15561). The assay is described as follows: TEAD4-TAZ HTRF (TR-FRET) protein-protein interaction assay. Conditions: for TEAD4 TAZ HTRF combined: Max % Inhibition: TEAD4, TAZ peptide; for EC50: TEAD4-TAZ HTRF, TR-FRET 665 nm/615 nm, read-out: TEAD4 TAZ HTRF combined: EC50. An outline of the steps: as §1
The target in another assay is TEAD3 YAP50-100 (Homo sapiens, UniProt Q99594). Description: TEAD3-YAP HTRF (TR-FRET) protein-protein interaction assay. Conditions: TEAD3, YAP peptide 50-100, HTRF; for EC50: read-out: TEAD3 YAP50-100 HTRF combined: EC50. An outline of the steps:
as §1

The next assay deals with TEAD2 YAP50-100 (Homo sapiens, UniProt Q15562). The assay is described as follows: TEAD2-YAP HTRF (TR-FRET) protein-protein interaction assay. Conditions: TEAD2, YAP peptide 50-100, HTRF; for EC50: read-out: TEAD2 YAP50-100 HTRF combined: EC50. An outline of the steps:
as §1

For assay [3], the target named is TEAD1 TAZ (amino acids 13-57) (Homo sapiens, UniProt P28347). Description: TEAD1-TAZ HTRF (TR-FRET) protein-protein interaction assay. Conditions: for TEAD1 TAZ HTRF combined: Max % Inhibition: TEAD1, TAZ peptide; for EC50: TEAD1-TAZ HTRF, TR-FRET 665 nm/615 nm, read-out: TEAD1 TAZ HTRF combined: EC50. An outline of the steps: as §1
Chain of TEAD1 TAZ (amino acids 13-57) (P28347 167-426 limits assumed): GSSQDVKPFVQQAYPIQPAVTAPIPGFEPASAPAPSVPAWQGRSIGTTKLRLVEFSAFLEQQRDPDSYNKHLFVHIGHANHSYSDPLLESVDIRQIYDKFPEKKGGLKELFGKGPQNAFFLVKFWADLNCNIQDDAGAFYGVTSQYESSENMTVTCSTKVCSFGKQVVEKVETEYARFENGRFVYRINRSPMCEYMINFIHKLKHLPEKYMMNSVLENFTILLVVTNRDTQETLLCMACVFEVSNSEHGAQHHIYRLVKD
Another assay addresses TEAD4 YAP50-100 (Homo sapiens, UniProt Q15561). The assay is described as follows: TEAD4-YAP HTRF (TR-FRET) protein-protein interaction assay. Conditions: TEAD4, YAP peptide 50-100, HTRF; for EC50: read-out: TEAD4 YAP50-100 HTRF combined: EC50. The method, boiled down:
as §1

Assay [4] has as its target TEAD3 TAZ (amino acids 13-57) (Homo sapiens, UniProt Q99594). Description: TEAD3-TAZ HTRF (TR-FRET) protein-protein interaction assay. Conditions: for TEAD3 TAZ HTRF combined: Max % Inhibition: TEAD3, TAZ peptide; for EC50: TEAD3-TAZ HTRF, TR-FRET 665 nm/615 nm, read-out: TEAD3 TAZ HTRF combined: EC50. An outline of the steps:
as §1

Another assay deals with TEAD1 YAP50-100 (Homo sapiens, UniProt P28347). Description: TEAD1-YAP HTRF (TR-FRET) protein-protein interaction assay. Conditions: TEAD1, YAP peptide 50-100, HTRF; for EC50: read-out: TEAD1 YAP50-100 HTRF combined: EC50. An outline of the steps:
as §1

Chain of TEAD4 YAP50-100 (Q15561 217-434 limits assumed): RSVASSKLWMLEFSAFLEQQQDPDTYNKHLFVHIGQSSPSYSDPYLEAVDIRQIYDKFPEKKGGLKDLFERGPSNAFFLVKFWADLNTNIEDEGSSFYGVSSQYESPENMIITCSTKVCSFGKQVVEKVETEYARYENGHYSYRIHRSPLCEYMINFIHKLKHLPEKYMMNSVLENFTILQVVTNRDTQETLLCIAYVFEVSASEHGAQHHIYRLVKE
Chain of TEAD4 TAZ (amino acids 13-57) (Q15561 217-434 limits assumed): as above
Chain of TEAD2 TAZ (amino acids 13-57) (Q15562 217-447): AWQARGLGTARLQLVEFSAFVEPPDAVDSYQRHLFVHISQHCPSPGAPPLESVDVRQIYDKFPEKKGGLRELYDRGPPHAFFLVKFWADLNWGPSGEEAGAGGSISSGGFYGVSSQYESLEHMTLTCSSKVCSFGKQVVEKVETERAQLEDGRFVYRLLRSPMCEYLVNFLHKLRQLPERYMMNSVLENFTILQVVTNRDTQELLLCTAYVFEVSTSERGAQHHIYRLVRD
Chain of TEAD2 YAP50-100 (Q15562 217-447): as above
Chain of TEAD1 YAP50-100 (P28347 167-426 limits assumed): as the sequence (P28347 167-426 limits assumed) above
Chain of TEAD3 TAZ (amino acids 13-57) (Q99594 173-435 limits assumed): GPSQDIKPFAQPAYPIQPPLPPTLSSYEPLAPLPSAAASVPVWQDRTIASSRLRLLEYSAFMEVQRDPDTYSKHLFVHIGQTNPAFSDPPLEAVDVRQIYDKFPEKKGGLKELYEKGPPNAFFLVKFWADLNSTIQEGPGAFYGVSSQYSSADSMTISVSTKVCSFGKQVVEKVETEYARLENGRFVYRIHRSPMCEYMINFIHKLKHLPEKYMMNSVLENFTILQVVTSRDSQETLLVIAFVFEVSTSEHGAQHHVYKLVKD
Chain of TEAD3 YAP50-100 (Q99594 173-435 limits assumed): as above

For `C[C@@H]1[C@H](CF)CN1C(=O)c1c(-c2cnccn2)nn2c(=O)cc(-c3ccc(C4CCCCC4)cc3)[nH]c12` (single isomer, unassigned) [Isomer B, Example 39], in assay [1], the “TEAD2 TAZ HTRF combined: Max % Inhibition” value was 37.0% and the half-maximal effective concentration (EC50) (as a rule, the concentration needed to bring the measured effect to its halfway point) turned out to be 190 nM. Further, in assay [2], the “TEAD4 TAZ HTRF combined: Max % Inhibition” value stood at 49.5% and the EC50 came to 6200 nM. Besides, at TEAD3 YAP50-100, the “TEAD3 YAP50-100 HTRF combined: Max % Inhibition” value stood at 67.0% and the EC50 was found to be 2450 nM. At TEAD2 YAP50-100, the “TEAD2 YAP50-100 HTRF combined: Max % Inhibition” value is listed as 17.5% and the EC50 was 170 nM. Besides, in assay [3], the “TEAD1 TAZ HTRF combined: Max % Inhibition” value is on record as 55.0% and the concentration for a half-maximal effect (EC50) was 170 nM. In addition, on TEAD4 YAP50-100, the “TEAD4 YAP50-100 HTRF combined: Max % Inhibition” value is recorded as 46.0% and the half-maximal effective concentration (EC50) amounted to 6450 nM. In assay [4], the “TEAD3 TAZ HTRF combined: Max % Inhibition” value turned out to be 68.0% and the half-maximal effective concentration (EC50) was 2500 nM. At TEAD1 YAP50-100, the “TEAD1 YAP50-100 HTRF combined: Max % Inhibition” value was determined as 62.0% and the concentration giving a half-maximal response (EC50) worked out at 170 nM.

For `C[C@H]1[C@@H](CF)CN1C(=O)c1c(-c2ncccn2)nn2c(=O)cc(-c3ccc(C4CCCCC4)cc3)[nH]c12` (single isomer, unassigned) [Isomer B, Example 40], in assay [1], the “TEAD2 TAZ HTRF combined: Max % Inhibition” value is 78.5% and the EC50 came to 120 nM. Besides, in assay [2], the “TEAD4 TAZ HTRF combined: Max % Inhibition” value is 51.0% and the EC50 was 2100 nM. On TEAD3 YAP50-100, the “TEAD3 YAP50-100 HTRF combined: Max % Inhibition” value amounted to 68.0% and the EC50 is 440 nM. Further, at TEAD2 YAP50-100, the “TEAD2 YAP50-100 HTRF combined: Max % Inhibition” value amounted to 68.0% and the EC50 worked out at 80 nM. Moreover, in assay [3], the “TEAD1 TAZ HTRF combined: Max % Inhibition” value is 70.0% and the concentration giving a half-maximal response (EC50) amounted to 140 nM. Besides, at TEAD4 YAP50-100, the “TEAD4 YAP50-100 HTRF combined: Max % Inhibition” value is reported as 49.5% and the concentration giving a half-maximal response (EC50) turned out to be 2000 nM. Moreover, in assay [4], the “TEAD3 TAZ HTRF combined: Max % Inhibition” value turned out to be 70.0% and the half-maximal effective concentration (EC50) stood at 530 nM. On TEAD1 YAP50-100, the “TEAD1 YAP50-100 HTRF combined: Max % Inhibition” value is 76.0% and the concentration giving a half-maximal response (EC50) was determined as 130 nM.

Take `Cc1nccnc1-c1nn2c(=O)cc(-c3ccc(C4CCCCC4)cc3)[nH]c2c1C(=O)N1C[C@H](CF)[C@@H]1C` (single isomer, unassigned) [Isomer B, Example 41]: in assay [1], the “TEAD2 TAZ HTRF combined: Max % Inhibition” value was 74.4% and the EC50 was 20 nM. Further, in assay [2], the “TEAD4 TAZ HTRF combined: Max % Inhibition” value is 57.0% and the EC50 worked out at 30 nM. On TEAD3 YAP50-100, the “TEAD3 YAP50-100 HTRF combined: Max % Inhibition” value is given as 80.2% and the EC50 amounted to 120 nM. Also, on TEAD2 YAP50-100, the “TEAD2 YAP50-100 HTRF combined: Max % Inhibition” value was determined as 77.8% and the concentration giving a half-maximal response (EC50) was found to be 20 nM. Further, in assay [3], the “TEAD1 TAZ HTRF combined: Max % Inhibition” value turned out to be 71.0% and the EC50 stood at 70 nM. Moreover, on TEAD4 YAP50-100, the “TEAD4 YAP50-100 HTRF combined: Max % Inhibition” value was 57.2% and the EC50 was found to be 30 nM. Moreover, in assay [4], the “TEAD3 TAZ HTRF combined: Max % Inhibition” value is reported as 73.8% and the EC50 came to 140 nM. At TEAD1 YAP50-100, the “TEAD1 YAP50-100 HTRF combined: Max % Inhibition” value is given as 80.0% and the EC50 came out at 80 nM.

As to `Cc1nccnc1-c1nn2c(=O)cc(-c3ccc(CC4CCCC4)cc3)[nH]c2c1C(=O)N1C[C@H](CF)[C@@H]1C` (single isomer, unassigned) [Isomer B, Example 42], in assay [1], the “TEAD2 TAZ HTRF combined: Max % Inhibition” value was 62.0% and the EC50 stood at 10 nM. Moreover, in assay [2], the “TEAD4 TAZ HTRF combined: Max % Inhibition” value stood at 48.5% and the 50% effective concentration (EC50) turned out to be 20 nM. Also, on TEAD3 YAP50-100, the “TEAD3 YAP50-100 HTRF combined: Max % Inhibition” value is recorded as 68.0% and the EC50 is 80 nM. At TEAD2 YAP50-100, the “TEAD2 YAP50-100 HTRF combined: Max % Inhibition” value is listed as 68.0% and the EC50 turned out to be 10 nM. For the same molecule, in assay [3], the “TEAD1 TAZ HTRF combined: Max % Inhibition” value is on record as 59.0% and the EC50 was 60 nM. At TEAD4 YAP50-100, the “TEAD4 YAP50-100 HTRF combined: Max % Inhibition” value is recorded as 52.5% and the EC50 was determined as 20 nM. In addition, in assay [4], the “TEAD3 TAZ HTRF combined: Max % Inhibition” value was determined as 60.0% and the EC50 came to 90 nM. For the same molecule, on TEAD1 YAP50-100, the “TEAD1 YAP50-100 HTRF combined: Max % Inhibition” value amounted to 68.0% and the EC50 worked out at 40 nM.
